Measurements from ChEMBL document CHEMBL1152504, “Design and synthesis of membrane fusion inhibitors against the feline immunodeficiency virus” (Bioorg Med Chem, 2009).
The source made the active and inactive calls. The calls are words filed in the database; no cut-off is given here.

How the values were obtained:
[1] = Inhibition of Feline immunodeficiency virus UK8 envelope glycoprotein gp40 assessed as inhibition of HR1-HR2 interaction after 1.5 hrs by ELISA
[2] = Inhibition of Feline immunodeficiency virus Petaluma envelope glycoprotein gp40 assessed as inhibition of HR1-HR2 interaction after 1.5 hrs by ELISA
[3] = Inhibition of Feline immunodeficiency virus Sendai-1 envelope glycoprotein gp40 assessed as inhibition of HR1-HR2 interaction after 1.5 hrs by ELISA
MT4 = assay: Inhibition of Feline immunodeficiency virus envelope glycoprotein 40-mediated cell fusion between virus-transfected feline thymic lymphoma 3201 cells and human MT4 cells at 10 uM after 7 days; format: cell-based
[4] = Inhibition of Feline immunodeficiency virus Shizuoka envelope glycoprotein gp40 assessed as inhibition of HR1-HR2 interaction after 1.5 hrs by ELISA

Compound	IC50 [1] [nM]	IC50 [2] [nM]	IC50 [3] [nM]	IC50 [4] [nM]	Activity (MT4)
H-GEETLKKWEEQTKKLEEKFKKIEENIKKNEEQVKKGEEQLKK-OH	–	> 10000	–	–	–
H-LEEWYKKTEELQKKFEEIIKKIEENNKKGEEGLKK-OH	3.38	12.8	2.53	19.7	–
H-LGEWYNQTKDLQQKFYEIIMDIEQNNVQGKKGIQQ-OH	513	1260	183	6310	Active
H-LGEWYNQTKELQQKFYEIIMNIEQNNVQVKKGLQQ-OH	724	708	646	6310	–
H-WEEWDKKIEEYTKKIEELIKKSEEQQKKNEEELKK-OH	–	> 10000	–	–	–

More lines, in order of falling IC50 [2], values ahead:

IC50 [1] [nM]	IC50 [2] [nM]	IC50 [3] [nM]	IC50 [4] [nM]	Compound	Activity (MT4)
> 10000	2400	437	> 10000	H-LGEWYNQTKGLQQKFYEIIMDIEQNSVQGKKGIQQ-OH	–
443	200	42.4	203	H-LEEWYKKTEELQKKFEEIIKKIEENSKKGEEGIKK-OH	–
182	195	37.2	2510	H-LRDWYNNTQQLQKKFYEIIYDIEQNNVQGKQGLQQ-OH	–
–	169	–	–	H-NEELGKKYEETKKKQEEFYKKIEEIEKKNEEVKKKLEELQKK-OH	–
9.33	51.6	8.87	78.5	CC[C@H](C)[C@H](NC(=O)CNC(=O)[C@H](CCC(=O)O)NC(=O)[C@H](CCC(=O)O)NC(=O)CNC(=O)[C@H](CCCCN)NC(=O)[C@H](CCCCN)NC(=O)[C@H](CC(N)=O)NC(=O)[C@H](CC(N)=O)NC(=O)[C@H](CCC(=O)O)NC(=O)[C@H](CCC(=O)O)NC(=O)[C@@H](NC(=O)[C@H](CCCCN)NC(=O)[C@H](CCCCN)NC(=O)[C@@H](NC(=O)[C@@H](NC(=O)[C@H](CCC(=O)O)NC(=O)[C@H](CCC(=O)O)NC(=O)[C@H](Cc1ccccc1)NC(=O)[C@H](CCCCN)NC(=O)[C@H](CCCCN)NC(=O)[C@H](CCC(N)=O)NC(=O)[C@H](CC(C)C)NC(=O)[C@H](CCC(=O)O)NC(=O)[C@H](CCC(=O)O)NC(=O)[C@@H](NC(=O)[C@H](CCCCN)NC(=O)[C@H](CCCCN)NC(=O)[C@H](Cc1ccc(O)cc1)NC(=O)[C@H](Cc1c[nH]c2ccccc12)NC(=O)[C@H](CCC(=O)O)NC(=O)[C@H](CCC(=O)O)NC(=O)[C@@H](N)CC(C)C)[C@@H](C)O)[C@@H](C)CC)[C@@H](C)CC)[C@@H](C)CC)C(=O)N[C@@H](CCCCN)C(=O)N[C@@H](CCCCN)C(=O)O	Active
5.39	16.6	22.6	115	H-LEEWYKKTEELQKKFEEIIKKIEENNKKVEEGLKK-OH	–
